According to ChEMBL document CHEMBL1122981, “Specific inhibition of benzodiazepine receptor binding by some N-(indol-3-ylglyoxylyl)amino acid derivatives” (J Med Chem, 1985):

What was measured:
[1] = biological target: GABA-A receptor; anion channel (Bos taurus) (UniProt P10063+P08220+P20237+P08219+P10064+P22300); assay: Inhibition of specific [3H]flunitrazepam binding to benzodiazepine receptor at 250 uM; type: protein-complex assay
[2] = biological target: GABA-A receptor; anion channel; assay: Inhibition of [3H]flunitrazepam binding to GABA-A central Benzodiazepine receptor of bovine brain membranes; type: cell membranes, Bos taurus

SMILES | inhibition [1] [%] | IC50 [2] [µM]
COc1ccc2[nH]cc(C(=O)C(=O)NC(C(=O)O)C(C)C)c2c1 (stereo not drawn) | 12 | –
CC(NC(=O)C(=O)c1c[nH]c2ccc([N+](=O)[O-])cc12)C(=O)O (stereo not drawn) | 94 | 6.2
O=C(NC(Cc1ccc(O)cc1)C(=O)O)C(=O)c1c[nH]c2ccc([N+](=O)[O-])cc12 (stereo not drawn) | 81 | 75
COC(=O)C(Cc1ccc(O)cc1)NC(=O)C(=O)c1c[nH]c2ccc([N+](=O)[O-])cc12 (stereo not drawn) | 100 | 20
O=C1CN=C(c2ccccc2)c2cc([N+](=O)[O-])ccc2N1 [NITRAZEPAM] | – | 0.038
CCOC(=O)C(Cc1c[nH]c2ccccc12)NC(=O)C(=O)c1c[nH]c2ccc(Br)cc12 (stereo not drawn) | 100 | 22
CCOC(=O)C(NC(=O)C(=O)c1c[nH]c2ccc(OC)cc12)C(C)C (stereo not drawn) | 66 | –
CC(C)C(NC(=O)C(=O)c1c[nH]c2ccc(Br)cc12)C(=O)O (stereo not drawn) | 72 | –
CCOC(=O)C(NC(=O)C(=O)c1c[nH]c2ccc(Cl)cc12)C(C)C (stereo not drawn) | 62 | –
CC(NC(=O)C(=O)c1c[nH]c2ccc(Cl)cc12)C(=O)O (stereo not drawn) | 93 | 22
CCOC(=O)C(Cc1c[nH]c2ccccc12)NC(=O)C(=O)c1c[nH]c2ccc(Cl)cc12 (stereo not drawn) | 55 | –
CCOC(=O)C(Cc1c[nH]c2ccccc12)NC(=O)C(=O)c1c[nH]c2ccccc12 (stereo not drawn) | 70 | –
CN1C(=O)CN=C(c2ccccc2)c2cc(Cl)ccc21 [DIAZEPAM] | – | 0.041
CCOC(=O)C(C)NC(=O)C(=O)c1c[nH]c2ccccc12 (stereo not drawn) | 80 | –
O=C(NC(Cc1ccc(O)cc1)C(=O)O)C(=O)c1c[nH]c2ccc(Br)cc12 (stereo not drawn) | 37 | –
CC(C)C(NC(=O)C(=O)c1c[nH]c2ccccc12)C(=O)O (stereo not drawn) | 28 | –
CCOC(=O)C(NC(=O)C(=O)c1c[nH]c2ccccc12)C(C)C (stereo not drawn) | 77 | –
O=C(NC(Cc1ccccc1)C(=O)O)C(=O)c1c[nH]c2ccc(Br)cc12 (stereo not drawn) | 62 | –
CCOC(=O)C(C)NC(=O)C(=O)c1c[nH]c2ccc(Br)cc12 (stereo not drawn) | 100 | 4.8
O=C(NC(Cc1c[nH]c2ccccc12)C(=O)O)C(=O)c1c[nH]c2ccccc12 (stereo not drawn) | 11 | –
CCOC(=O)C(Cc1ccccc1)NC(=O)C(=O)c1c[nH]c2ccc(Br)cc12 (stereo not drawn) | 65 | –
CCOC(=O)C(Cc1ccccc1)NC(=O)C(=O)c1c[nH]c2ccc(OC)cc12 (stereo not drawn) | 60 | –
O=C(NC(Cc1ccc(O)cc1)C(=O)O)C(=O)c1c[nH]c2ccc(Cl)cc12 (stereo not drawn) | 67 | –

SMILES | inhibition [1] [%] | IC50 [2] [µM]
O=C(NC(Cc1ccc(O)cc1)C(=O)O)C(=O)c1c[nH]c2ccccc12 (stereo not drawn) | 27 | –
CCOC(=O)CNC(=O)C(=O)c1c[nH]c2ccc(Cl)cc12 | 100 | 5.4
CCOC(=O)C(C)NC(=O)C(=O)c1c[nH]c2ccc(Cl)cc12 (stereo not drawn) | 100 | 0.5
CC(C)C(NC(=O)C(=O)c1c[nH]c2ccc([N+](=O)[O-])cc12)C(=O)O (stereo not drawn) | 83 | 60
CCOC(=O)CNC(=O)C(=O)c1c[nH]c2ccccc12 | 84 | –
O=C(NC(Cc1c[nH]c2ccccc12)C(=O)O)C(=O)c1c[nH]c2ccc(Cl)cc12 (stereo not drawn) | 61 | –
COc1ccc2[nH]cc(C(=O)C(=O)NC(Cc3ccccc3)C(=O)O)c2c1 (stereo not drawn) | 38 | –
O=C(NC(Cc1c[nH]c2ccccc12)C(=O)O)C(=O)c1c[nH]c2ccc(Br)cc12 (stereo not drawn) | 66 | –
O=C(NC(Cc1c[nH]c2cc([N+](=O)[O-])ccc12)C(=O)O)C(=O)c1c[nH]c2ccccc12 (stereo not drawn) | 31 | –
COC(=O)C(Cc1ccc(O)cc1)NC(=O)C(=O)c1c[nH]c2ccccc12 (stereo not drawn) | 50 | –
CC(NC(=O)C(=O)c1c[nH]c2ccccc12)C(=O)O (stereo not drawn) | 72 | –
CCOC(=O)CNC(=O)C(=O)c1c[nH]c2ccc(Br)cc12 | 100 | 2
CCOC(=O)C(Cc1ccc(O)cc1)NC(=O)C(=O)c1c[nH]c2ccc(Cl)cc12 (stereo not drawn) | 89 | 80
CNC1=Nc2ccc(Cl)cc2C(c2ccccc2)=[N+]([O-])C1 [CHLORDIAZEPOXIDE] | – | 1.1
CCOC(=O)C(C)NC(=O)C(=O)c1c[nH]c2ccc([N+](=O)[O-])cc12 (stereo not drawn) | 100 | 0.2
CCOC(=O)C(Cc1ccc(O)cc1)NC(=O)C(=O)c1c[nH]c2ccc(Br)cc12 (stereo not drawn) | 68 | –
CC(C)C(NC(=O)C(=O)c1c[nH]c2ccc(Cl)cc12)C(=O)O (stereo not drawn) | 68 | –
CCOC(=O)C(Cc1c[nH]c2ccccc12)NC(=O)C(=O)c1c[nH]c2ccc([N+](=O)[O-])cc12 (stereo not drawn) | 59 | –
O=C(O)CNC(=O)C(=O)c1c[nH]c2ccc(Cl)cc12 | 82 | 38
CCOC(=O)C(NC(=O)C(=O)c1c[nH]c2ccc(Br)cc12)C(C)C (stereo not drawn) | 88 | –
O=C(O)CNC(=O)C(=O)c1c[nH]c2ccccc12 | 20 | –
CCOC(=O)C(Cc1c[nH]c2cc([N+](=O)[O-])ccc12)NC(=O)C(=O)c1c[nH]c2ccccc12 (stereo not drawn) | 48 | –
